Here are results for one compound from patent US12691087B2, “Method of enhancing glucose levels in the central nervous system” (THE INSTITUTE FOR ETHNOMEDICINE, priority 2018, dated 2026).

The conditions of data set [1]: up to 30 g/day over a six-month period; 20 ALS patients; cited from earlier work.
Data set [2] can be described thus: Randomized, placebo-controlled double-blinded study of cognitive ability in healthy post-menopausal women (Rey Auditory Verbal Learning Test). The data set is classed as in vivo, human. To be noted: 15 g/day for 60 days. An excerpt: This Example describes a nutritional experiment conducted on post-menopausal women. The study was designed to determine if dietary supplementation with L-[…] grams/day) improves cognitive ability in healthy women when administered over a 60-day period. Forty-eight women ages 55 years, who had not been diagnosed with mild cognitive impairment, probable dementia, or Alzheimer's disease participated as volunteers in this randomized, placebo-controlled double-blinded study. Forty-three women completed the study. Cognitive abilities of each participant were assessed in several different cognitive domains by using the NIH toolbox (Gershon et al, 2013) on an I-Pad, founded on earlier test procedures developed by Atkinson and […] (1968). Cognitive tests included the Rey Auditory Verbal Learning Test which broadly assesses short-term auditory and verbal learning (King et al. 1998). For example, in one test participants were presented 15 unrelated words and asked to repeat them again after 30 minutes. The cognitive assessment was administered to participants at the beginning and the end of the sixty-day study period. The assessment procedure lasted 45 minutes for each individual. L-serine gummies, each at 2.2 grams total weight, and each containing 1.0 grams of L-serine were manufactured in a cGMP FDA-compliant facility by […]). Placebo gummies were manufactured in a similar manner. […] The gummies were placed in sealed foil packets, each packet containing 15 gummies. Microbiological analysis indicated the gummies to be free of bacterial contamination. The materials used for packaging were manufactured by ESP Packaging LLC (Costa Mesa, CA). Each individual foil packet was labeled with a lot number containing the Julian code date. […] The differences between the beginning and end score for each participant in the L-serine treatment and placebo treatment groups were evaluated using a Wilcoxon-Mann-Whitney test with p<0.05 as the significance level. […]

Data set [3] is described as follows: Case study of a person with GLUT1 deficiency. To be noted: 30 grams per day oral, single patient. The data set is classed as in vivo, human. An excerpt:
Evidence for the efficacy of L-serine therapy for glucose deficiency syndrome is supported by a case-study of a person (“the patient”) who suffered ataxia, developmental impairment, reduced social interaction, and fine motor skill deficits as a result of their GLUT1 deficiency. In subjects suffering from glucose deficiency syndrome, there is insufficient glucose transported across the brain to allow proper functioning of brain cells. Since L-serine is transported through a different mechanism across the blood brain barrier, it is possible to increase intracranial glucose concentrations through administration of high doses of L-serine. The patient was administered 30 grams of L-serine per day by oral administration.

The test system of data set [4] is human neuroblastoma cells (SH-SY5Y). The experiment in a line: Glucose synthesis by SH-SY5Y cells given L-serine (Amplex Red Glucose Assay, culture medium). The class given is cell-based. To be noted: 100, 200 and 500 mM L-serine; 0, 24 and 48 hrs; medium deficient in glucose. The method, then:
Cell Culture: SH-SY5Y human neuroblastoma (PD19, […]) were cultured in 150 cm^2 flasks in Dulbecco's Modified Eagle's Medium/Nutrient F-12 Ham (Sigma-Aldrich, Cat. No. D8437) containing 10% fetal bovine serum (FBS), 4 mM L-glutamine, 100 U/mL penicillin, and 100 μg/mL streptomycin at 37° C. (Complete Medium) in a humidified atmosphere of 5% CO2 and 95% air. At between 70 and 90% confluence, the cells were trypsinized with 0.5% Trypsin-EDTA (Thermo Fisher, Cat. No. 15400054) and then 2.5×10^5 cells/well plated in twenty-four-well plates and allowed to adhere overnight (PD22). The following day, the cell culture medium was aspirated, and the cells were washed three times in warm […] Hanks buffered salt solution (HBSS). […] Glucose concentrations were measured using the Amplex® Red Glucose/Glucose Oxidase Assay Kit (Invitrogen). […] Fluorescence was read at excitation 540 nm and emission […] in SoftMax Pro version 7.0.2 on a Molecular Devices Flexstation 3. Glucose concentrations in the samples were calculated from the standard curve. […] Human neuroblastoma cells were incubated in medium deficient in glucose and L-serine, but supplemented with increasing concentrations of L-[…], 200 and 500 mM) for 0, 24 and 48 hrs, then glucose concentrations in the culture medium measured using the Amplex® Red Glucose Assay (Invitrogen).

Data set [5] in a line: Glucose in cerebral spinal fluid of vervets fed L-serine. The data set is classed as in vivo, vervets (Chlorocebus pygerythrus). The method, then:
[…]. These were compared to four control vervets who were fed daily control doses of 651 mg/day of rice powder for 42 days.
Cerebral spinal fluid samples were taken during the experiment. The cerebral spinal fluid samples from vervets fed L-serine were compared to cerebral spinal fluid samples from control vervets at 42 days.
Frozen cerebral spinal fluid (CSF) was prepared using equal volumes of CSF and 20% w/v TCA. The combined volume was sonicated (Fisher Scientific Sonic Dismembrator, Model 100) on ice at 2 watts (10 s×3) and left to precipitate at room temperature for 30 minutes. The sample was then centrifuged (Labnet Spectrafuge 16M) at 14,000 g for 5 min. […]
CSF extracts were analyzed on a TSQ Quantiva (Thermo Scientific) triple quadrupole mass spectrometer with an Ultra High Pressure Liquid Chromatography (Waters Acquity-UHPLC) system equipped with a Binary Solvent Manager, Sample Manager, and an Acquity UPLC BEH Amide column (#186004801, 100×2.1 mm, 1.7 μm) at 50° C. […]
The mass spectrometer was operated with a heated electrospray ionization (H-ESI) probe and sheath gas pressure set to 40 (Arb), aux gas set to 2 (Arb), and sweep gas set to 1 (Arb). Samples were analyzed in negative ion mode with a vaporizer temperature of 350° C., capillary temperature of 130° C., and spray voltage 2800v. […]

Data set [6] in a line: Storage stability of L-serine. The class given is physicochemical. To be noted: 24 month storage, room temperature (<30° C.), relative humidity <75%.

As to `N[C@@H](CO)C(=O)O` [L-serine], in data set [1], the safety result is reported as “safe”. Further, in data set [2] (did not achieve statistical significance), the delayed list recall is reported as “trend towards improvement”. Besides, the “mean improvement on the Rey Auditory Verbal Learning Test” value in data set [2] (final minus beginning score, placebo 4.0) worked out at 7.9. For the same compound, in data set [2] (p<0.01), the “improvement in learning ability (Rey Auditory Verbal Learning Test) compared to the placebo group” value was 98%. In addition, in data set [3], the “fine motor skills, including handwriting” value was “improved fine motor skills” and the social interaction entry is recorded as “improved social interaction”. Moreover, the “patient's condition (ability to ride a bicycle and carry cargo)” value in data set [3] (within several weeks) is given as “rapid improvement”. Also, the “glucose concentration in the culture medium compared to Control (0 mM L-serine)” value in data set [4] was “No significant increase”. The “increase of glucose levels versus control vervets” value in data set [5] (651 mg/day oral for 42 days, significant at p<0.005) was “great than doubling”. Moreover, the “median level of glucose in CSF” value in data set [5] (vervets fed 651 mg/day L-serine for 42 days, CSF at 42 days, control 24 mg/100 ml, p<0.005) stood at 58 mg/100 ml. Further, in data set [6], the “changes in optical rotation or purity on storage” value is reported as “No significant changes” and the stability on storage result is given as “extraordinarily stable”.
